# Earlier results, collected in patent publication US12097195B2, “Pharmaceutical composition containing alkynyl compound and preparation method and application thereof” (ASCENTAGE PHARMA (SUZHOU) CO., LTD., priority 2019, dated 2024).
# Legend:
# [1] = tested on: chronic leukemia K562
# [2] = tested on: acute leukemia MOLT
structure (smiles),measurement,setting,value
"Cc1ccc(C(=O)Nc2ccc(CN3CCN(C)CC3)c(C(F)(F)F)c2)cc1C#Cc1cnc2[nH]ncc2c1 [alknyl compound, 3-((1H-pyrazolo[3,4-b]pyridin-5-yl)ethynyl)-4-methyl-N-(4-((4-methylpiperazin-1-yl)methyl)-3-(trifluoromethyl)phenyl)-benzamide]",inhibition rate,[1],very good inhibition rate
same,inhibition rate,[2],very good inhibition rate
